# Test results taken from patent US8778837B2, “Use of active substance combinations for controlling animal pests” (priority 2007, dated 2014).
# Where “and” joins values, the source holds several entries; their conditions need not be identical. Equal values may be shown once.
# Columns and labels:
# Type in all cases: in vivo
# [1] = system: Spodoptera frugiperda; experiment: Spodoptera frugiperda test (cabbage leaf dip)
# From the text: (§1) The activity to be expected for a given combination of two active substances can be calculated as follows (cf. Colby, S. R., “Calculating Synergistic and Antagonistic Responses of Herbicide Combinations”, Weeds 15, pages 20-22, 1967):
# (§2) • X means the degree of destruction expressed in % of the untreated control when using active substance A at an application rate of m ppm or m g/ha, • Y means the degree of destruction expressed in % of the untreated control when using active substance B at an application rate of n ppm or n g/ha, and • E means the degree of destruction expressed in % of the untreated control when employing active substances A and B at application rates of m and n ppm or m and n g/ha, then
# (§3) If the actual insecticidal degree of destruction is greater than calculated, the combination is superadditive regarding its destruction, i.e. a synergistic effect is present. In this case, the degree of destruction which is actually observed must exceed the value calculated on the basis of the above formula for the expected degree of destruction (E).
# Spodoptera frugiperda Test
# (§4) Solvent: 7 parts by weight of dimethylformamide
# (§5) Emulsifier: 2 parts by weight of alkylaryl polyglycol ether
# (§6) To prepare a suitable preparation of active substance, 1 part by weight of active substance is mixed with the stated amounts of solvent and emulsifier, and the concentrate is diluted to the desired concentration with emulsifier-containing water.
# Cabbage leaves (Brassica oleracea) are treated by being dipped into the active substance preparation of the desired concentration and are populated with armyworm caterpillars (Spodoptera frugiperda) while the leaves are still moist.
# (§7) After the desired period of time, the destruction is determined in %. Here, 100% means that all the caterpillars have been destroyed; 0% means that no caterpillars have been destroyed. The destruction rates which have been determined are entered in the Colby formula (see sheet 1).
# [2] = system: Phaedon cochleariae larvae; experiment: Phaedon cochleariae larvae test (cabbage leaf dip)
# From the text: as §1, §2, §3
# Phaedon Cochleariae Larvae Test
# as §4, §5, §6
# Cabbage leaves (Brassica oleracea) are treated by being dipped into the active substance preparation of the desired concentration and are populated with mustard beetle larvae (Phaedon cochleariae) while the leaves are still moist.
# After the desired period of time, the destruction is determined in %. Here, 100% means that all the beetle larvae have been destroyed; 0% means that no beetle larvae have been destroyed. The destruction rates which have been determined are entered in the Colby formula (see sheet 1).
# [3] = system: Plutella xylostella, sensitive strain; experiment: Plutella xylostella test (sensitive strain, cabbage leaf dip)
# From the text: as §1, §2, §3
# Plutella-Xylostella Test (Sensitive Strain)
# as §4, §5, §6
# Cabbage leaves (Brassica oleracea) are treated by being dipped into the active substance preparation of the desired concentration and are populated with diamondback moth caterpillars (Plutella xylostella, sensitive strain) while the leaves are still moist.
# as §7
# [4] = system: Myzus persicae; experiment: Myzus persicae test (cabbage leaf dip)
# From the text: as §1, §2, §3, §4, §5, §6
# Cabbage leaves (Brassica oleracea) which are severely infested with the green peach aphid (Myzus persicae) are treated by being dipped into the active substance preparation of the desired concentration.
# After the desired period of time, the destruction is determined in %. Here, 100% means that all the aphids have been destroyed; 0% means that no aphids have been destroyed. The destruction rates which have been determined are entered in the Colby formula (see sheet 1).
smiles,measurement,setting,value
"CN/C(=N\[N+](=O)[O-])NCc1cnc(Cl)s1 [Clothianidin, clothianidin]",Destruction in % after 3 d,[1]; 4 ppm,95%
same,Destruction in % after 6 d,[2]; 4 ppm,65%
same,Destruction in % after 6 d,[3]; 20 ppm,25%
same,Destruction in % after 6 d,[4]; 0.8 ppm,55%
"N#Cc1nn(-c2c(Cl)cc(C(F)(F)F)cc2Cl)c(N)c1[S+]([O-])C(F)(F)F (stereo not shown) [Fipronil, fipronil]",Destruction in % after 6 d,[1]; 0.8 ppm,5%
same,Destruction in % after 6 d,[4]; 100 ppm,65%
O=[N+]([O-])NC1=NCCN1Cc1ccc(Cl)nc1 [Imidacloprid],Destruction in % after 6 d,[2]; 20 ppm,75%
same,Destruction in % after 6 d,[4]; 0.8 ppm,75%
"N#Cc1ccccc1NC(=O)c1snc(Cl)c1Cl [Isotianil, 3,4-dichloro-2′-cyano-1,2-thiazole-5-carboxanilide]",Destruction in % after 3 d,[1]; 500 ppm,10%
same,Destruction in % after 6 d,[2]; 500 ppm,0%
same,Destruction in % after 6 d,[3]; 500 ppm,0%
same,Destruction in % after 1 d,[4]; 500 ppm,0%
same,Destruction in % after 6 d,[4]; 500 ppm,10% and 0%
N#C/N=C1\SCCN1Cc1ccc(Cl)nc1 [Thiacloprid],Destruction in % after 6 d,[2]; 4 ppm,0%
same,Destruction in % after 6 d,[3]; 20 ppm,45%
same,Destruction in % after 6 d,[4]; 0.8 ppm,45%
CN1COCN(Cc2cnc(Cl)s2)/C1=N\[N+](=O)[O-] [Thiamethoxam],Destruction in % after 6 d,[1]; 20 ppm,70%
same,Destruction in % after 6 d,[2]; 20 ppm,80%
same,Destruction in % after 1 d,[4]; 0.8 ppm,75%
